We go through 8 compounds from paper PMC4505424, “A Novel Mechanism for Binding of Galactose-terminated Glycans by the C-type Carbohydrate Recognition Domain in Blood Dendritic Cell Antigen 2” (The Journal of Biological Chemistry, 2015).

Test [1] concerns the target T1, BDCA-2 CRD (blood dendritic cell antigen 2) (Homo sapiens, UniProt Q8WTT0).
T1 construct: gene CLEC4C; extracellular C-type carbohydrate recognition domain; expected mass of CRD 17,100; monomer
T1 sequence (Q8WTT0 67-213): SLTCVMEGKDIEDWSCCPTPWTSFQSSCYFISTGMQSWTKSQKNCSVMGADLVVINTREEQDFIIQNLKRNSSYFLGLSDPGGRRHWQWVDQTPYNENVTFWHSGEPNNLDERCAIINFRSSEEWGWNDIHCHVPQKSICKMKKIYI
The test can be described thus: solid-phase competition with […]-Man-BSA on immobilised CRD. In kind it is binding. The settings on record: half-maximal inhibition, Ca2+-dependent.

Test [2] deals with T1, BDCA-2 CRD (blood dendritic cell antigen 2). The test is described as above. Format: binding. The settings on record: half-maximal inhibition; Ca2+-dependent.

Take `CC(=O)N[C@H]1[C@H](O[C@@H]2C(O)O[C@H](CO)[C@@H](O)[C@@H]2O)O[C@H](CO)[C@@H](O[C@@H]2O[C@H](CO)[C@H](O)[C@H](O)[C@H]2O)[C@@H]1O` (some centres unmarked) [Galβ1–4GlcNAcβ1–2Man]: the Ki (commonly a dissociation constant, usually derived from enzyme kinetics or from competition with a known ligand) in test [1] (extended site, mannose at Ca2+) turned out to be 9.2 ± 1.4 µM.
On to `CO[C@H]1O[C@H](CO)[C@@H](O)[C@H](O)[C@H]1NC(C)=O` [GlcNAc (α-methyl glycoside)], for which the “KI relative to KI for α-methyl mannoside” value in test [2] is “including glucose and GlcNAc, as well as L-fucose, also compete for binding”.
In test [1], `CC(=O)N[C@H]1[C@H](O[C@@H]2C(O)O[C@H](CO)[C@@H](O)[C@@H]2O)O[C@H](CO)[C@@H](O)[C@@H]1O` (some centres unmarked) [GlcNAcβ1–2Man] gave a Ki of 92 ± 12 µM.
With `CO[C@@H]1O[C@@H](C)[C@@H](O)[C@@H](O)[C@@H]1O` [L-fucose (α-methyl glycoside)], in test [2], the “KI relative to KI for α-methyl mannoside” value was “including glucose and GlcNAc, as well as L-fucose, also compete for binding”.
In test [1], `CC(=O)N[C@H]1[C@H](O[C@H]2[C@H](O)[C@@H](NC(C)=O)C(O)O[C@@H]2CO)O[C@H](CO)[C@@H](O[C@@H]2O[C@H](CO[C@H]3O[C@H](CO)[C@@H](O)[C@H](O)[C@@H]3O[C@@H]3O[C@H](CO)[C@@H](O[C@@H]4O[C@H](CO)[C@H](O)[C@H](O)[C@H]4O)[C@H](O)[C@H]3NC(C)=O)[C@@H](O)[C@H](O[C@H]3O[C@H](CO)[C@@H](O)[C@H](O)[C@@H]3O[C@@H]3O[C@H](CO)[C@@H](O[C@@H]4O[C@H](CO)[C@H](O)[C@H](O)[C@H]4O)[C@H](O)[C@H]3NC(C)=O)[C@@H]2O)[C@@H]1O` (some centres unmarked) [asialo biantennary glycan] yielded a Ki of 0.46 ± 0.01 µM.
`CC(=O)N[C@H]1[C@H](O[C@H]2[C@H](O)[C@@H](NC(C)=O)C(O)O[C@@H]2CO)O[C@H](CO)[C@@H](O[C@@H]2O[C@H](CO[C@H]3O[C@H](CO)[C@@H](O)[C@H](O)[C@@H]3O[C@@H]3O[C@H](CO)[C@@H](O[C@@H]4O[C@H](CO[C@]5(C(=O)O)C[C@H](O)[C@@H](NC(C)=O)[C@H]([C@H](O)[C@H](O)CO)O5)[C@H](O)[C@H](O)[C@H]4O)[C@H](O)[C@H]3NC(C)=O)[C@@H](O)[C@H](O[C@H]3O[C@H](CO)[C@@H](O)[C@H](O)[C@@H]3O[C@@H]3O[C@H](CO)[C@@H](O[C@@H]4O[C@H](CO[C@]5(C(=O)O)C[C@H](O)[C@@H](NC(C)=O)[C@H]([C@H](O)[C@H](O)CO)O5)[C@H](O)[C@H](O)[C@H]4O)[C@H](O)[C@H]3NC(C)=O)[C@@H]2O)[C@@H]1O` (some centres unmarked) [disialylated oligosaccharide] gave a Ki in test [1] of 320 ± 20 µM.
As to `CO[C@H]1O[C@H](CO)[C@H](O)[C@H](O)[C@H]1O` [galactose (α-methyl glycoside)], in test [2], the “KI relative to KI for α-methyl mannoside” value is “Comparison of mannose and galactose as competing ligands confirmed the affinity chromatography results”.
On the same count and under the same terms, the value for `CO[C@H]1O[C@H](CO)[C@@H](O)[C@H](O)[C@H]1O` [glucose (α-methyl glycoside)] was “including glucose and GlcNAc, as well as L-fucose, also compete for binding”.
